Each structure is given as a SMILES string. Read-outs that look alike come from different tables or passages of the source.

Assay [1] has as its system p53 in A2780 cells. Kind of assay: p53 ELISA (capacity to preserve p53 in A2780 cells). It is filed as cell-based. Conditions: lowest dose giving at least 140% of the value for p53 present in the control; A2780 cells treated with compound for 16 hours. On the procedure:
The capacity of the compounds to preserve p53 in A2780 cells was measured with the p53 enzyme linked immunosorbent assay. The p53 assay is a “sandwich” enzyme immunoassay employing two polyclonal antibodies. A polyclonal antibody, specific for the p53 protein, has been immobilized onto the surface of the plastic wells. Any p53 present in the sample to be assayed will bind to the capture antibody. The biotinylated detector polyclonal antibody also recognizes p53 protein, and will bind to any p53, which has been retained by the capture antibody. The detector antibody, in turn, is bond by horseradish peroxidase-conjugated streptavidin. The horseradish peroxidase catalyses the conversion of the chromogenic substrate o-phenylene diamine, the intensity of which is proportional to the amount of p53 protein bond to the plate. The colored reaction product is quantified using a spectrophotometer. Quantitation is achieved by the construction of a standard curve using known concentrations of purified recombinant HIS tagged p53 protein (see example C.1.).
A2780 cells (ATCC) were cultivated in RPMI 1640 supplemented with 10% fetal calf serum (FCS), 2 mM L-glutamine and gentamycin at 37° C. in a humidified incubator with 5% CO2.
A2780 cells were seeded at 20.000 cells per well in a 96 well plate, cultured for 24 hours and treated with compound for 16 hours at 37° C. in a humidified incubator. After incubation, the cells were washed once with phosphate-buffered saline and 30 μl, per well, low salt RIPA buffer (20 mM tris, pH7.0, 0.5 mM EDTA, 1% Nonidet P40, 0.5% DOC, 0.05% SDS, 1 mM PMSF, 1 μg/ml aprotinin and 0.5 μ/ml leupeptin) was added. Plates were placed on ice for 30 minutes to complete the lysis. p53 protein was detected in de lysates by using the sandwich ELISA, described below.
High binding polystyrene EIA/RIA 96 well plates (Costar 9018) were coated with the capture antibody pAb1801 (Abcam ab28-100) at a concentration of 1 μg/ml in coating buffer (0.1 M NaHCO3 pH8.2), 50 μl per well. The antibody was allowed to adhere overnight at 4° C. Coated plates were washed once with phosphate-buffered saline (PBS)/0.05% Tween 20 and 300 μl of blocking buffer (PBS, 1% bovine serum albumins (BSA)) was added, for an incubation period of 2 hours at room temperature. Dilutions of purified recombinant HIS tagged p53 protein, ranging from 3-200 ng/ml, were made in blocking buffer and used as standards.
Plates were washed twice with PBS/0.05% Tween 20 and blocking buffer or standards were added at 80 μl/well. To the standards, 20 μl of lysis buffer was added. The samples were added to the other wells at 20 μl lysate/well. After an overnight incubation at 4° C., plates were washed twice with PBS/0.05% Tween 20. Aliquots of 100 μl secondary polyclonal antibody p53(FL-393) (Tebubio, sc-6243) at a concentration of 1 μg/ml in blocking buffer were added to each well and allowed to adhere for 2 hours at room temperature. Plates were washed three times with PBS/0.05% Tween 20. Detection antibody anti-rabbit HRP (sc-2004, Tebubio) at 0.04 μg/ml in PBS/1% BSA was added and incubated for 1 hour at room temperature. Plates were washed three times with PBS/0.05% Tween 20 and 100 μl of substrate buffer was added (substrate buffer was prepared shortly before use by adding 1 tablet of 10 mg o-phenylene diamine (OPD) from Sigma and 125 μl 3% H2O2 to 25 ml OPD buffer: 35 mM citric acid, 66 mM Na2HPO4, pH5.6). After 5 to 10 minutes, colour reaction was stopped by adding 50 μl stop buffer (1 M H2SO4) per well. The absorbance at dual wavelengths of 490/655 nm was measured using a Biorad micro plate reader and the results were then analyzed.
For each experiment, controls (containing no drug) and a blank incubation (containing no cells or drugs) were run in parallel. The blank value was subtracted from all control and sample values. For each sample, the value of p53 (in absorbance units) was expressed as the percentage of the value for p53 present in the control. […]

In assay [2] the test system is U87MG cells. Put plainly: Proliferation assay (MTT-based) on U87MG tumour cells. It is filed as cell-based. Conditions: Homo sapiens, U-87 MG, 96 h, 4 days of incubation. How it is done:
Cellular activity of the compounds of formula (I) was determined on U87MG tumour cells using a colorimetric assay for cell toxicity or survival (see example C.2).
U87MG cells are human glioblastoma cells with wild type p53. In this cell line MDM2 tightly controls p53 expression.
All compounds tested were dissolved in DMSO and further dilutions were made in culture medium. Final DMSO concentrations never exceeded 0.1% (v/v) in cell proliferation assays. Controls contained U87MG cells and DMSO without compound and blanks contained DMSO but no cells.
U87MG cells were seeded in 96-well cell culture plates at 3000 cells/well/100 μl. 24 hours later, medium was changed and compound and/or solvent were added to a final volume of 200 μl. Following 4 days of incubation, medium was replaced by 200 μl fresh medium and cell growth was assessed using a MTT-based assay. Therefore, 25 μl of the MTT solution (0.5% MTT research grade from Serva in phosphate-buffered saline) was added to each well and the cells were further incubated for 2 hours at 37° C. The medium was then carefully aspirated and the blue MTT-formazan product was dissolved by adding to each well 25 μl 0.1M glycin and 100 μl DMSO. The plates were shaken for another 10 min on a micro plate shaker before reading absorbance at 540 nm by a Biorad micro plate reader.
Within an experiment, the results for each experimental condition are the mean of 3 replicate wells. For initial screening purposes, compounds were tested at a single fixed concentration of 10^−5 M. For active compounds, the experiments were repeated to establish full concentration-response curves. For each experiment, controls (containing no drug) and a blank incubation (containing no cells or drugs) were run in parallel. The blank value was subtracted from all control and sample values. For each sample, the mean value for cell growth (in absorbance units) was expressed as a percentage of the mean value for cell growth of the control. When appropriate, IC50-values (concentration of the drug, needed to reduce cell growth to 50% of the control) were computed using probit analysis for graded data (Finney, D. J., Probit Analyses, 2nd Ed. Chapter 10, Graded Responses, Cambridge University Press, Cambridge 1962). Herein the effects of test compounds are expressed as pIC50 (the negative log value of the IC50-value) (see table F-2).
In some of the experiments the proliferation assay was adapted for and used in 384-well culture plates (see table F-2).

Where [3] appears, read: 96-well plates, read-out: cell proliferation pIC50 96 well (converted).

In the case of `c1ccc2c(CCNc3ccc4c(c3)CCN4c3ccncc3)c[nH]c2c1` [Compound 1], the A2780 p53-elisa LAD in assay [1] came to 0.1 µM. The IC50 in assay [2] (setting [3]) was 10 nM.
Consider `c1ccc2c(N3CCc4cc(NCCc5c[nH]c6ccccc56)ccc43)ccnc2c1` [Compound 2], for which, in assay [1], the A2780 p53-elisa LAD amounted to 1 µM. The IC50 in assay [2] (setting [3]) is 1700 nM.
For the compound `COC(=O)c1cc(N2CCc3cc(NCCc4c[nH]c5ccccc45)ccc32)ccn1` [Compound 3], the A2780 p53-elisa LAD in assay [1] worked out at 1 µM. The IC50 in assay [2] (setting [3]) was 4170 nM.
Regarding `OCc1cc(N2CCc3cc(NCCc4c[nH]c5ccccc45)ccc32)ccn1` [Compound 4], in assay [1], the A2780 p53-elisa LAD was determined as 0.3 µM. Moreover, the IC50 in assay [2] (setting [3]) was 158 nM.
Regarding `OC1CCc2c(N3CCc4cc(NCCc5c[nH]c6ccccc56)ccc43)ccnc21` (stereo not drawn) [Compound 5], in assay [1], the A2780 p53-elisa LAD was determined as 0.3 µM. Moreover, the IC50 in assay [2] (setting [3]) is 295 nM.
Turning to `CC1(C)CN(c2ccncc2)c2ccc(NCCc3c[nH]c4ccccc34)cc21` [Compound 6], the A2780 p53-elisa LAD in assay [1] amounted to 3 µM. The IC50 in assay [2] (384-well culture plates, read-out: cell proliferation pIC50 384 well (converted)) was 295 nM.
